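Growth conditions: 96-well plates. Treatment: test compound, 48 hours, 5 concentrations. Analysis: linear interpolation between bracketing concentrations; unreached endpoints set to highest concentration. TGI is the concentration that stops growth completely.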
Tests used:
Assay in all cases: inhibition of tumour cell growth, NCI panel, 48 h
[1] = system: NCI-H23 lung
[2] = system: TK-10 renal
[3] = system: U251 CNS
[4] = system: CCRF-CEM leukemia
[5] = system: UO-31 renal
[6] = system: BT-549 breast
[7] = system: HCT-15 colon
[8] = system: MDA-MB-231 breast
[9] = system: MDA-N
[10] = system: 786-0 renal
[11] = system: MOLT-4 leukemia
[12] = system: HOP-92 NSCLC
[13] = system: SF-268 CNS
[14] = system: UACC-62 melanoma
[15] = system: EKVX NSCLC
[16] = system: SW-620 colon
[17] = system: SN12C renal
[18] = system: SK-MEL-2 melanoma
[19] = system: NCI-H522 lung
[20] = system: HCC-2998 colon
[21] = system: SR leukemia
[22] = system: RPMI-8226 leukemia
[23] = system: SNB-75 CNS
[24] = system: MDA-MB-435
[25] = system: SK-OV-3 ovarian
[26] = system: NCI/ADR-RES ovarian
[27] = system: NCI-H226 lung
[28] = system: HOP-62 NSCLC
[29] = system: COLO 205 colon
[30] = system: HCT-116 colon
[31] = system: CAKI-1 renal
[32] = system: OVCAR-3 ovarian
[33] = system: ACHN renal
[34] = system: OVCAR-8 ovarian
[35] = system: MALME-3M melanoma
[36] = system: M14 melanoma
[37] = system: HT29 colon
[38] = system: IGROV1 ovarian
[39] = system: DU-145 prostate
[40] = system: A498 renal
[41] = system: OVCAR-4 ovarian
[42] = system: PC-3 prostate
[43] = system: HS 578T breast
[44] = system: RXF 393 renal
[45] = system: SF-295 CNS
[46] = system: SK-MEL-28 melanoma
[47] = system: T-47D breast
[48] = system: NCI-H460 lung
[49] = system: SNB-19 CNS
[50] = system: KM12 colon
[51] = system: SK-MEL-5 melanoma
[52] = system: OVCAR-5 ovarian
[53] = system: LOX IMVI melanoma
[54] = system: MCF7 breast
[55] = system: K-562 leukemia
[56] = system: A549 NSCLC
[57] = system: SF-539 CNS
[58] = system: UACC-257 melanoma
[59] = system: HL-60(TB) leukemia

In the case of Nc1cc2c3c(cccc3c1)C(=O)N(c1ccc(OCCN3CCCC3)cc1)C2=O, the TGI [1] is reported as 28.2 µM, the TGI [2] is reported as 35.6 µM and the TGI [3] is reported as 64.6 µM. It also gave a TGI [4] of 69 µM, a TGI [5] of 28.6 µM and a TGI [6] of 34.3 µM. For the same compound, the TGI [7] was 26.8 µM, the TGI [8] was 57.1 µM and the TGI [9] was 34.7 µM. It also gave a TGI [10] of 31.5 µM, a TGI [11] of 55.8 µM and a TGI [12] of 50.6 µM. It also gave a TGI [13] greater than 59.7 µM, a TGI [14] of 33.3 µM and a TGI [15] of 46.1 µM. The TGI [16] was 97 µM, the TGI [17] was greater than 66.7 µM and the TGI [18] was 38 µM. It also gave a TGI [19] of 30.7 µM, a TGI [20] of 31.3 µM and a TGI [21] of 50.9 µM. For the same compound, the TGI [22] was 56.3 µM, the TGI [23] was 25.3 µM and the TGI [24] was 42.4 µM. It also gave a TGI [25] of 42 µM, a TGI [26] greater than 57 µM and a TGI [27] of 33.2 µM. For the same compound, the TGI [28] was 29.7 µM, the TGI [29] was 35.2 µM and the TGI [30] was 40.9 µM. It also gave a TGI [31] greater than 61.5 µM, a TGI [32] of 29.7 µM and a TGI [33] of 26.5 µM. For the same compound, the TGI [34] was 35.8 µM, the TGI [35] was 35.9 µM and the TGI [36] was 51.2 µM. For the same compound, the TGI [37] was 29.8 µM, the TGI [38] was 36.4 µM and the TGI [39] was greater than 92.8 µM. The TGI [40] was 91.5 µM, the TGI [41] was 33.8 µM and the TGI [42] was 46.5 µM. For the same compound, the TGI [43] was 55.7 µM, the TGI [44] was 32.2 µM and the TGI [45] was 27.4 µM. For the same compound, the TGI [46] was 47 µM, the TGI [47] was 51.6 µM and the TGI [48] was 23.7 µM. The TGI [49] was 41.9 µM, the TGI [50] was 31.1 µM and the TGI [51] was 36.9 µM. It also gave a TGI [52] of 46.3 µM, a TGI [53] of 48.5 µM and a TGI [54] of 31.5 µM. It also gave a TGI [55] of 49.2 µM, a TGI [56] of 50.8 µM and a TGI [57] of 27.8 µM. The TGI [58] was 31.5 µM.

Work on CCOC(=O)/C=C/[C@@H](CC)O[Si](C(C)C)(C(C)C)C(C)C yielded a TGI [1] greater than 100 µM, a TGI [2] greater than 100 µM and a TGI [3] greater than 100 µM. For the same compound, the TGI [4] was greater than 100 µM, the TGI [5] was greater than 100 µM and the TGI [6] was greater than 100 µM. It also gave a TGI [7] greater than 100 µM, a TGI [8] greater than 100 µM and a TGI [9] greater than 100 µM. For the same compound, the TGI [10] was greater than 100 µM, the TGI [11] was greater than 100 µM and the TGI [12] was greater than 100 µM. It also gave a TGI [13] greater than 100 µM, a TGI [14] greater than 100 µM and a TGI [15] greater than 100 µM. The TGI [16] was greater than 100 µM, the TGI [18] was greater than 100 µM and the TGI [19] was greater than 100 µM. It also gave a TGI [20] greater than 100 µM, a TGI [21] greater than 100 µM and a TGI [22] of 94.6 µM. The TGI [23] was greater than 100 µM, the TGI [24] was greater than 100 µM and the TGI [25] was greater than 100 µM. For the same compound, the TGI [26] was greater than 100 µM, the TGI [27] was greater than 100 µM and the TGI [28] was greater than 100 µM. For the same compound, the TGI [29] was greater than 100 µM, the TGI [30] was greater than 100 µM and the TGI [31] was greater than 100 µM. The TGI [32] was greater than 100 µM, the TGI [33] was greater than 100 µM and the TGI [34] was greater than 100 µM. For the same compound, the TGI [35] was greater than 100 µM, the TGI [37] was greater than 100 µM and the TGI [38] was greater than 100 µM. The TGI [39] was greater than 100 µM, the TGI [40] was greater than 100 µM and the TGI [41] was greater than 100 µM. For the same compound, the TGI [42] was greater than 100 µM, the TGI [43] was greater than 100 µM and the TGI [45] was greater than 100 µM. It also gave a TGI [47] greater than 100 µM, a TGI [48] greater than 100 µM and a TGI [49] greater than 100 µM. It also gave a TGI [50] greater than 100 µM, a TGI [51] greater than 100 µM and a TGI [52] greater than 100 µM. The TGI [53] was greater than 100 µM, the TGI [54] was greater than 100 µM and the TGI [55] was greater than 100 µM. The TGI [56] was greater than 100 µM, the TGI [57] was greater than 100 µM and the TGI [58] was greater than 100 µM.

Compound C=C1CC2[C@H](C)C(=O)CCC2(C)C2=C1C1CCC(C(C)CCC(=C)C(C)C(=O)O)C1(C)CC2=O (some centres undefined) has a TGI [1] greater than 100 µM, a TGI [2] greater than 100 µM and a TGI [59] of 31.4 µM. It also gave a TGI [3] greater than 100 µM, a TGI [4] of 30.3 µM and a TGI [5] of 99.4 µM. It also gave a TGI [6] greater than 100 µM, a TGI [7] greater than 100 µM and a TGI [8] greater than 100 µM. For the same compound, the TGI [9] was greater than 100 µM, the TGI [10] was 40.1 µM and the TGI [11] was 63.1 µM. For the same compound, the TGI [12] was 85.2 µM, the TGI [13] was greater than 100 µM and the TGI [14] was greater than 100 µM. It also gave a TGI [15] greater than 100 µM, a TGI [16] greater than 100 µM and a TGI [17] greater than 100 µM. The TGI [18] was greater than 100 µM, the TGI [19] was greater than 100 µM and the TGI [20] was greater than 100 µM. It also gave a TGI [23] greater than 100 µM, a TGI [24] greater than 100 µM and a TGI [25] greater than 100 µM. For the same compound, the TGI [26] was greater than 100 µM, the TGI [27] was greater than 100 µM and the TGI [28] was greater than 100 µM. For the same compound, the TGI [29] was greater than 100 µM, the TGI [30] was greater than 100 µM and the TGI [31] was greater than 100 µM. The TGI [32] was greater than 100 µM, the TGI [33] was greater than 100 µM and the TGI [34] was greater than 100 µM. It also gave a TGI [35] greater than 100 µM, a TGI [36] greater than 100 µM and a TGI [37] greater than 100 µM. The TGI [38] was greater than 100 µM, the TGI [39] was greater than 100 µM and the TGI [40] was greater than 100 µM. For the same compound, the TGI [41] was greater than 100 µM, the TGI [42] was greater than 100 µM and the TGI [43] was greater than 100 µM. It also gave a TGI [44] of 86.4 µM, a TGI [45] greater than 100 µM and a TGI [46] greater than 100 µM. The TGI [47] was greater than 100 µM, the TGI [48] was greater than 100 µM and the TGI [49] was greater than 100 µM. The TGI [50] was greater than 100 µM, the TGI [51] was greater than 100 µM and the TGI [52] was greater than 100 µM. For the same compound, the TGI [53] was 33.8 µM, the TGI [54] was greater than 100 µM and the TGI [55] was 28.7 µM. It also gave a TGI [56] greater than 100 µM, a TGI [57] greater than 100 µM and a TGI [58] of 96 µM.

Reference: PubChem BioAssay (NCI)
